The record followed here is ChEMBL document CHEMBL4387716, “Discovery of trans-3-(pyridin-3-yl)acrylamide-derived sulfamides as potent nicotinamide phosphoribosyltransferase (NAMPT) inhibitors for the potential treatment of cancer” (Bioorg Med Chem Lett, 2019).

Molecules are shown by their SMILES.

One experiment deals with DU-145. The experiment is described as follows: Antiproliferative activity against human DU145 cells assessed as inhibition of cell growth after 72 hrs by CCK-8 assay. The settings on record: DU-145, 72 h. It is filed as functional, cell-based.
In another experiment the test system is K562. The experiment is described as follows: Antiproliferative activity against human K562 cells assessed as inhibition of cell growth after 72 hrs by CCK-8 assay. The settings on record: K562, 72 h. It is filed as functional, cell-based. For orientation: Tetrazolium dyes change colour on reduction, which living cells bring about.
Another experiment concerns NCI-H1975. The experiment is described as follows: Antiproliferative activity against human NCI-H1975 cells harboring EGFR L858R/T790M mutation assessed as inhibition of cell growth after 72 hrs by CCK-8 assay. It counts as functional, cell-based. The settings on record: NCI-H1975, 72 h.
For the next experiment, the system named is Huh-7. The experiment is described as follows: Antiproliferative activity against human HuH7 cells assessed as inhibition of cell growth after 72 hrs by CCK-8 assay. The settings on record: Huh-7, 72 h. It counts as functional, cell-based.
The test system of the next experiment is HeLa. Briefly: Antiproliferative activity against human HeLa cells assessed as inhibition of cell growth after 72 hrs by CCK-8 assay. It counts as functional, cell-based.
For experiment [1], the target named is Nicotinamide phosphoribosyltransferase (Homo sapiens, UniProt P43490). Briefly: Inhibition of recombinant NAMPT (unknown origin) using NAM and PRPP as substrates incubated for 60 mins in presence of NMNAT1 measured at 5 mins interval for 30 mins by WST1 assay.
For a further experiment, the system named is MCF7. Briefly: Antiproliferative activity against human MCF7 cells assessed as inhibition of cell growth after 72 hrs by CCK-8 assay. It is filed as functional, cell-based. The settings on record: MCF7, 72 h.

Sequence of Nicotinamide phosphoribosyltransferase (P43490 whole entry): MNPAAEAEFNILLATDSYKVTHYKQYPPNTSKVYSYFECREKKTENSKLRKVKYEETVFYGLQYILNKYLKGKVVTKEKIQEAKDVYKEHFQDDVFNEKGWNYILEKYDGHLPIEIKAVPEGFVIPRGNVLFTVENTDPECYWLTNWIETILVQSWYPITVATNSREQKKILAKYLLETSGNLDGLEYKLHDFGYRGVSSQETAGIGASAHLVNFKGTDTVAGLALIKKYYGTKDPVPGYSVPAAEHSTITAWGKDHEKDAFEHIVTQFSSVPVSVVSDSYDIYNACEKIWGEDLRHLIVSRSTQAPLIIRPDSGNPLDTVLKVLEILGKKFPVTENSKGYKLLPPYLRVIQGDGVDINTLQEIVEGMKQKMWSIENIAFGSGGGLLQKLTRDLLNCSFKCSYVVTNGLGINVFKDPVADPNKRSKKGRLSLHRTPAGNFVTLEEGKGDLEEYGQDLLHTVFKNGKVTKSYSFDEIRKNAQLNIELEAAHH

Regarding `Cc1ccccc1NS(=O)(=O)c1cccc(CCCCCCNC(=O)/C=C/c2cccnc2)c1`, the IC50 (in general, the concentration needed to halve the response being measured) was 2.9 nM in the experiment with DU-145; 0.456 to 0.46 nM in the experiment with K562; 2.24 nM in the experiment on NCI-H1975; 0.525 to 0.53 nM in the experiment on Huh-7; 2.34 nM in the experiment on HeLa; 5.08 nM in experiment [1]. In the experiment with MCF7, the IC50 fell in the range of 0.226 to 0.23 nM.

Regarding `CCc1ccc(NS(=O)(=O)c2cccc(CCCCCCNC(=O)/C=C/c3cccnc3)c2)cc1`, the IC50 came out at 40.1 nM in the experiment on DU-145; 3.89 nM with K562; 33.4 nM with NCI-H1975; 34.6 nM in the experiment with Huh-7; 132 nM with HeLa; 31.5 nM in experiment [1]. Further, the IC50 in the experiment on MCF7 came out at 3.64 nM.

In the case of `O=C(/C=C/c1cccnc1)NCCCCCCCc1cccc(S(=O)(=O)Nc2ccccc2)c1`, the 50% inhibitory concentration (IC50) in the experiment with DU-145 came out at 429 nM; in the experiment with K562, 61.1 nM; with NCI-H1975, 316 nM; in the experiment on Huh-7, 138 nM; with HeLa it was 598 nM; in experiment [1] it was 31.3 nM. Moreover, the half-maximal inhibitory concentration (IC50) with MCF7 stood at 42.6 nM.

As for `O=C(/C=C/c1cccnc1)NCCCCCCc1ccc(S(=O)(=O)Nc2ccccc2)cc1`, the 50% inhibitory concentration (IC50) worked out at 328 nM in the experiment on DU-145; 48.5 nM with K562; 239 nM in the experiment on NCI-H1975; 112 nM with Huh-7; 377 nM in the experiment with HeLa; 14.4 nM in experiment [1]. Moreover, the IC50 in the experiment on MCF7 is 36 nM.

For the molecule `Cc1ccc(NS(=O)(=O)c2cccc(CCCCCCNC(=O)/C=C/c3cccnc3)c2)cc1`, the IC50 with DU-145 was found to be 34.4 nM; in the experiment with K562, 2.98 nM; in the experiment with NCI-H1975 it was 17.1 nM; with Huh-7, 6.92 nM; in the experiment on HeLa it was 38.8 nM; in experiment [1], 9.78 nM. The IC50 in the experiment on MCF7 came to 1.97 nM.

In the case of `Cc1cccc(NS(=O)(=O)c2cccc(CCCCCCNC(=O)/C=C/c3cccnc3)c2)c1`, the half-maximal inhibitory concentration (IC50) with DU-145 worked out at 41.7 nM; in the experiment with K562 it was 4.78 nM; in the experiment with NCI-H1975, 40.7 nM; in the experiment with Huh-7, 13.2 nM; with HeLa, 65.8 nM; in experiment [1], 12.3 nM. For the same molecule, the concentration for half-maximal inhibition (IC50) in the experiment on MCF7 is 4 nM.

Consider `O=C(/C=C/c1cccnc1)NCCCCCc1cccc(S(=O)(=O)Nc2ccccc2)c1`, for which the IC50 in the experiment on DU-145 is 140 nM; with K562 it was 16.2 nM; in the experiment with NCI-H1975, 146 nM; in the experiment on Huh-7, 41.1 nM; with HeLa, 105 nM; in experiment [1], 16.5 nM. Also, the IC50 with MCF7 is 12.5 nM.

With `O=C(/C=C/c1cccnc1)NCCCCC1CCN(C(=O)c2ccccc2)CC1` [DAPORINAD], the IC50 in the experiment on DU-145 worked out at 5.12 nM; in the experiment on K562, 0.96 nM; with NCI-H1975 it was 4.76 nM; in the experiment on Huh-7 it was 1.05 nM; in the experiment with HeLa, 3.75 nM; in the experiment on MCF7 it was 0.41 nM.

Regarding `O=C(/C=C/c1cccnc1)NCCCCCCc1cccc(S(=O)(=O)Nc2ccc(C(F)(F)F)cc2)c1`, the IC50 in the experiment with DU-145 turned out to be 1410 nM; in the experiment with K562 it was 44.9 nM; in the experiment with NCI-H1975, 175 nM; with Huh-7, 164 nM; with HeLa it was 1450 nM; in experiment [1] it was 24.5 nM. Also, the IC50 in the experiment with MCF7 came out at 67.8 nM.

For the molecule `O=C(/C=C/c1cccnc1)NCCCc1ccc(S(=O)(=O)Nc2ccccc2)cc1`, the 50% inhibitory concentration (IC50) in the experiment on DU-145 was greater than 10000 nM; in the experiment on K562, 4900 nM; in the experiment on NCI-H1975, greater than 10000 nM; in the experiment on Huh-7, greater than 10000 nM; in the experiment with HeLa, greater than 10000 nM; in experiment [1], 5920 nM. Besides, in the experiment on MCF7, the IC50 was determined as 4120 nM.

As for `Cc1ccc(C)c(NS(=O)(=O)c2cccc(CCCCCCNC(=O)/C=C/c3cccnc3)c2)c1`, the IC50 stood at 7.48 nM with DU-145; 0.84 nM in the experiment on K562; 4.88 nM with NCI-H1975; 2.58 nM in the experiment on Huh-7; 22.6 nM in the experiment with HeLa; 11.6 nM in experiment [1]. Besides, the 50% inhibitory concentration (IC50) in the experiment on MCF7 turned out to be 0.6 nM.

`O=C(/C=C/c1cccnc1)NCCCc1cccc(S(=O)(=O)Nc2ccccc2)c1`: the IC50 in the experiment with DU-145 was 165 nM; in the experiment with K562, 86.8 nM; in the experiment on NCI-H1975, 261 nM; with Huh-7, 384 nM; in the experiment on HeLa it was 115 nM; in experiment [1], 235 nM. Moreover, the IC50 in the experiment with MCF7 was 142 nM.

For the molecule `O=C(/C=C/c1cccnc1)NCCCCCCc1cccc(S(=O)(=O)Nc2ccc(F)cc2)c1`, the concentration for half-maximal inhibition (IC50) in the experiment with DU-145 worked out at 10.6 nM; in the experiment on K562, 0.93 nM; with NCI-H1975 it was 1.34 nM; in the experiment on Huh-7 it was 4.28 nM; in the experiment on HeLa, 99.9 nM; in experiment [1], 9.2 nM. In addition, in the experiment with MCF7, the half-inhibitory concentration (IC50) worked out at 0.91 nM.

As for `O=C(/C=C/c1cccnc1)NCCCCCCc1cccc(S(=O)(=O)Nc2ccc(Cl)cc2)c1`, the 50% inhibitory concentration (IC50) in the experiment on DU-145 came out at 84.4 nM; in the experiment with K562, 6.41 nM; with NCI-H1975 it was 33.3 nM; in the experiment with Huh-7, 24.1 nM; in the experiment with HeLa, 170 nM; in experiment [1], 10.8 nM. In addition, in the experiment on MCF7, the IC50 is 5.94 nM.

Turning to `O=C(/C=C/c1cccnc1)NCCCCc1ccc(S(=O)(=O)Nc2ccccc2)cc1`, the concentration for half-maximal inhibition (IC50) in the experiment on DU-145 worked out at 47.9 nM; in the experiment on K562, 9.56 nM; with NCI-H1975, 63.6 nM; with Huh-7 it was 24.2 nM; in the experiment with HeLa, 184 nM; in experiment [1], 17.8 nM. Further, the IC50 with MCF7 was determined as 5.03 nM.

In the case of `O=C(/C=C/c1cccnc1)NCCCCCCc1cccc(S(=O)(=O)Nc2ccc(F)c(Cl)c2)c1`, the IC50 in the experiment on DU-145 was 150 nM; in the experiment with K562, 5.31 nM; in the experiment with NCI-H1975 it was 25 nM; in the experiment with Huh-7 it was 39.4 nM; in the experiment on HeLa, 385 nM; in experiment [1], 9.7 nM. The IC50 with MCF7 came out at 6.3 nM.

As for `O=C(/C=C/c1cccnc1)NCCCCCCc1cccc(S(=O)(=O)Nc2ccc(Oc3ccccc3)cc2)c1`, the IC50 came out at 50.9 nM in the experiment on DU-145; 5.12 nM in the experiment with K562; 25.6 nM in the experiment on NCI-H1975; 32.7 nM with Huh-7; 262 nM with HeLa; 13.1 nM in experiment [1]. Also, the IC50 in the experiment with MCF7 was found to be 3.84 nM.

Turning to `O=C(/C=C/c1cccnc1)NCCCCCCc1cccc(S(=O)(=O)Nc2ccccc2)c1`, the IC50 with DU-145 amounted to 6.73 nM; in the experiment with K562, 0.88 nM; in the experiment with NCI-H1975 it was 6.37 nM; in the experiment with Huh-7, 2.82 nM; in the experiment with HeLa it was 30.4 nM; in experiment [1], 10.5 nM. Also, the IC50 in the experiment on MCF7 came out at 0.63 nM.

As to `O=C(/C=C/c1cccnc1)NCCCCCCCc1ccc(S(=O)(=O)Nc2ccccc2)cc1`, the IC50 was 438 nM in the experiment on DU-145; 56.5 nM in the experiment with K562; 330 nM in the experiment with NCI-H1975; 1220 nM in the experiment on Huh-7; 223 nM in the experiment on HeLa; 16.4 nM in experiment [1]. For the same molecule, the IC50 with MCF7 is 37.6 nM.

Consider `CC(C)(C)c1ccc(NS(=O)(=O)c2cccc(CCCCCCNC(=O)/C=C/c3cccnc3)c2)cc1`, for which the IC50 amounted to 281 nM in the experiment on DU-145; 24.7 nM in the experiment with K562; 157 nM with NCI-H1975; 163 nM in the experiment on Huh-7; 1520 nM in the experiment on HeLa; 9.47 nM in experiment [1]. Besides, in the experiment with MCF7, the IC50 turned out to be 26.3 nM.

Consider `O=C(/C=C/c1cccnc1)NCCCCCc1ccc(S(=O)(=O)Nc2ccccc2)cc1`, for which the IC50 in the experiment with DU-145 is 581 nM; in the experiment with K562, 146 nM; in the experiment on NCI-H1975, 778 nM; with Huh-7 it was 408 nM; in the experiment on HeLa it was 333 nM; in experiment [1], 28.4 nM. The IC50 in the experiment with MCF7 is 95.7 nM.
